Reference: PubChem BioAssay (NCI)
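Where inhibition never reached the appropriate level, the endpoint shown equals the highest concentration tested. Otherwise, values were interpolated linearly from a five-concentration, 48-hour dose response in 96-well plates. GI50 marks 50% less growth. At the TGI there is no net growth.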

Key:
Assay in all cases: growth of human tumour cells (NCI), 48 h
786-0 renal = system: 786-0 renal
A498 renal = system: A498 renal
A549 NSCLC = system: A549 NSCLC
ACHN renal = system: ACHN renal
BT-549 breast = system: BT-549 breast
CAKI-1 renal = system: CAKI-1 renal
CCRF-CEM leukemia = system: CCRF-CEM leukemia
COLO 205 colon = system: COLO 205 colon
DU-145 prostate = system: DU-145 prostate
EKVX NSCLC = system: EKVX NSCLC
HCT-116 colon = system: HCT-116 colon
HCT-15 colon = system: HCT-15 colon
HL-60(TB) leukemia = system: HL-60(TB) leukemia
HOP-62 NSCLC = system: HOP-62 NSCLC
HOP-92 NSCLC = system: HOP-92 NSCLC
HS 578T breast = system: HS 578T breast
HT29 colon = system: HT29 colon
IGROV1 ovarian = system: IGROV1 ovarian
K-562 leukemia = system: K-562 leukemia
KM12 colon = system: KM12 colon
LOX IMVI melanoma = system: LOX IMVI melanoma
M14 melanoma = system: M14 melanoma
MALME-3M melanoma = system: MALME-3M melanoma
MCF7 breast = system: MCF7 breast
MDA-MB-231 breast = system: MDA-MB-231 breast
MDA-MB-435 = system: MDA-MB-435
MOLT-4 leukemia = system: MOLT-4 leukemia
NCI-H226 lung = system: NCI-H226 lung
NCI-H23 lung = system: NCI-H23 lung
NCI-H460 lung = system: NCI-H460 lung
NCI-H522 lung = system: NCI-H522 lung
NCI/ADR-RES ovarian = system: NCI/ADR-RES ovarian
OVCAR-3 ovarian = system: OVCAR-3 ovarian
OVCAR-4 ovarian = system: OVCAR-4 ovarian
OVCAR-5 ovarian = system: OVCAR-5 ovarian
OVCAR-8 ovarian = system: OVCAR-8 ovarian
PC-3 prostate = system: PC-3 prostate
RPMI-8226 leukemia = system: RPMI-8226 leukemia
RXF 393 renal = system: RXF 393 renal
SF-268 CNS = system: SF-268 CNS
SF-295 CNS = system: SF-295 CNS
SF-539 CNS = system: SF-539 CNS
SK-MEL-2 melanoma = system: SK-MEL-2 melanoma
SK-MEL-28 melanoma = system: SK-MEL-28 melanoma
SK-MEL-5 melanoma = system: SK-MEL-5 melanoma
SK-OV-3 ovarian = system: SK-OV-3 ovarian
SN12C renal = system: SN12C renal
SNB-19 CNS = system: SNB-19 CNS
SNB-75 CNS = system: SNB-75 CNS
SR leukemia = system: SR leukemia
SW-620 colon = system: SW-620 colon
T-47D breast = system: T-47D breast
TK-10 renal = system: TK-10 renal
U251 CNS = system: U251 CNS
UACC-257 melanoma = system: UACC-257 melanoma
UACC-62 melanoma = system: UACC-62 melanoma
UO-31 renal = system: UO-31 renal

SMILES: CCOc1ccc(Nc2nc(-c3ccc4c(c3)NC(=O)CO4)cs2)cc1
- GI50 (786-0 renal): 14.3 µM
- TGI (786-0 renal): > 100 µM
- GI50 (A498 renal): 13.6 µM
- TGI (A498 renal): 55.4 µM
- GI50 (A549 NSCLC): 5.14 µM
- TGI (A549 NSCLC): > 100 µM
- GI50 (ACHN renal): 6.96 µM
- TGI (ACHN renal): > 100 µM
- GI50 (BT-549 breast): 2.56 µM
- TGI (BT-549 breast): 20.7 µM
- GI50 (CAKI-1 renal): 19 µM
- TGI (CAKI-1 renal): 90.7 µM
- GI50 (CCRF-CEM leukemia): 6.28 µM
- TGI (CCRF-CEM leukemia): > 100 µM
- GI50 (COLO 205 colon): 11.1 µM
- TGI (COLO 205 colon): 33.6 µM
- GI50 (DU-145 prostate): 30.8 µM
- TGI (DU-145 prostate): > 100 µM
- GI50 (EKVX NSCLC): 6.59 µM
- TGI (EKVX NSCLC): > 100 µM
- GI50 (HCT-116 colon): 4.01 µM
- TGI (HCT-116 colon): > 100 µM
- GI50 (HCT-15 colon): 4.74 µM
- TGI (HCT-15 colon): > 100 µM
- GI50 (HL-60(TB) leukemia): 2.14 µM
- TGI (HL-60(TB) leukemia): 8.17 µM
- GI50 (HOP-62 NSCLC): 15.4 µM
- TGI (HOP-62 NSCLC): > 100 µM
- GI50 (HOP-92 NSCLC): 12.4 µM
- TGI (HOP-92 NSCLC): > 100 µM
- GI50 (HS 578T breast): 22.5 µM
- TGI (HS 578T breast): > 100 µM
- GI50 (HT29 colon): 5.74 µM
- TGI (HT29 colon): > 100 µM
- GI50 (IGROV1 ovarian): 15.5 µM
- TGI (IGROV1 ovarian): > 100 µM
- GI50 (K-562 leukemia): 4.86 µM
- TGI (K-562 leukemia): > 100 µM
- GI50 (KM12 colon): 11.1 µM
- TGI (KM12 colon): > 100 µM
- GI50 (LOX IMVI melanoma): 5.33 µM
- TGI (LOX IMVI melanoma): > 100 µM
- GI50 (M14 melanoma): 4.33 µM
- TGI (M14 melanoma): 17.4 µM
- GI50 (MALME-3M melanoma): 4.71 µM
- TGI (MALME-3M melanoma): 20.4 µM
- GI50 (MCF7 breast): 3.18 µM
- TGI (MCF7 breast): 23.3 µM
- GI50 (MDA-MB-231 breast): 21.1 µM
- TGI (MDA-MB-231 breast): > 100 µM
- GI50 (MDA-MB-435): 2.95 µM
- TGI (MDA-MB-435): 11.3 µM
- GI50 (MOLT-4 leukemia): 2.01 µM
- TGI (MOLT-4 leukemia): 5.28 µM
- GI50 (NCI-H226 lung): 10 µM
- TGI (NCI-H226 lung): > 100 µM
- GI50 (NCI-H23 lung): 6.96 µM
- TGI (NCI-H23 lung): > 100 µM
- GI50 (NCI-H460 lung): 4.37 µM
- TGI (NCI-H460 lung): > 100 µM
- GI50 (NCI-H522 lung): 4.27 µM
- TGI (NCI-H522 lung): 37.1 µM
- GI50 (NCI/ADR-RES ovarian): 4.12 µM
- TGI (NCI/ADR-RES ovarian): > 100 µM
- GI50 (OVCAR-3 ovarian): 20.2 µM
- TGI (OVCAR-3 ovarian): > 100 µM
- GI50 (OVCAR-4 ovarian): 3.51 µM
- TGI (OVCAR-4 ovarian): > 100 µM
- GI50 (OVCAR-5 ovarian): > 100 µM
- TGI (OVCAR-5 ovarian): > 100 µM
- GI50 (OVCAR-8 ovarian): 4 µM
- TGI (OVCAR-8 ovarian): > 100 µM
- GI50 (PC-3 prostate): 3.04 µM
- TGI (PC-3 prostate): 32.8 µM
- GI50 (RPMI-8226 leukemia): 14.9 µM
- TGI (RPMI-8226 leukemia): > 100 µM
- GI50 (RXF 393 renal): 16.1 µM
- TGI (RXF 393 renal): 62.4 µM
- GI50 (SF-268 CNS): 36.7 µM
- TGI (SF-268 CNS): > 100 µM
- GI50 (SF-295 CNS): 4.92 µM
- TGI (SF-295 CNS): > 100 µM
- GI50 (SF-539 CNS): 16.1 µM
- TGI (SF-539 CNS): > 100 µM
- GI50 (SK-MEL-2 melanoma): 3.98 µM
- TGI (SK-MEL-2 melanoma): 13.8 µM
- GI50 (SK-MEL-28 melanoma): 4.29 µM
- TGI (SK-MEL-28 melanoma): 19.6 µM
- GI50 (SK-MEL-5 melanoma): 1.65 µM
- TGI (SK-MEL-5 melanoma): 3.5 µM
- GI50 (SK-OV-3 ovarian): 32.5 µM
- TGI (SK-OV-3 ovarian): > 100 µM
- GI50 (SN12C renal): 49.4 µM
- TGI (SN12C renal): > 100 µM
- GI50 (SNB-19 CNS): 18.9 µM
- TGI (SNB-19 CNS): > 100 µM
- GI50 (SNB-75 CNS): 18 µM
- TGI (SNB-75 CNS): > 100 µM
- GI50 (SR leukemia): 4.68 µM
- TGI (SR leukemia): > 100 µM
- GI50 (SW-620 colon): 19.6 µM
- TGI (SW-620 colon): > 100 µM
- GI50 (T-47D breast): 1.94 µM
- TGI (T-47D breast): 10.4 µM
- GI50 (TK-10 renal): 9.98 µM
- TGI (TK-10 renal): > 100 µM
- GI50 (U251 CNS): 10.7 µM
- TGI (U251 CNS): > 100 µM
- GI50 (UACC-257 melanoma): 3.37 µM
- TGI (UACC-257 melanoma): 11 µM
- GI50 (UACC-62 melanoma): 6.94 µM
- TGI (UACC-62 melanoma): 23.5 µM
- GI50 (UO-31 renal): 5.47 µM
- TGI (UO-31 renal): > 100 µM
